The numbers were not newly measured in US11154507B2, “Freeze-dried aripiprazole formulation” (OTSUKA PHARMACEUTICAL CO., LTD., priority 2011, dated 2021), which cites them from elsewhere.

The conditions of this data set: room temperature.

Take `O=C1CCc2ccc(OCCCCN3CCN(c4cccc(Cl)c4Cl)CC3)cc2N1` [Aripiprazole]: the solubility in water was less than 1 µg/mL.
